19 molecules from US12187701B2, “Taire family kinase inhibitors and uses thereof” (Dana-Farber Cancer Institute, Inc., priority 2018, dated 2025) can be followed below.

Molecules are shown by their SMILES. Read-outs that look alike come from different tables or passages of the source.

Assay [1] deals with Cdk14/CycY (Homo sapiens (Human), UniProt O94921). The experiment in a line: Lanthascreen Eu kinase binding assay for Cdk14/CycY with 30 minute pre-incubation. As to conditions: 30 minute pre-incubation of kinase with compound; read-out: IC50 CDK14 binding by Lanthascreen. The procedure: Lanthascreen Eu kinase binding assays were conducted for Cdk14/CycY largely as performed in the commercial assay service by Life Technologies, but included a 30 minute pre-incubation step of the kinase with candidate compounds to facilitate covalent bond formation.
Sequence of Cdk14/CycY (O94921 whole entry): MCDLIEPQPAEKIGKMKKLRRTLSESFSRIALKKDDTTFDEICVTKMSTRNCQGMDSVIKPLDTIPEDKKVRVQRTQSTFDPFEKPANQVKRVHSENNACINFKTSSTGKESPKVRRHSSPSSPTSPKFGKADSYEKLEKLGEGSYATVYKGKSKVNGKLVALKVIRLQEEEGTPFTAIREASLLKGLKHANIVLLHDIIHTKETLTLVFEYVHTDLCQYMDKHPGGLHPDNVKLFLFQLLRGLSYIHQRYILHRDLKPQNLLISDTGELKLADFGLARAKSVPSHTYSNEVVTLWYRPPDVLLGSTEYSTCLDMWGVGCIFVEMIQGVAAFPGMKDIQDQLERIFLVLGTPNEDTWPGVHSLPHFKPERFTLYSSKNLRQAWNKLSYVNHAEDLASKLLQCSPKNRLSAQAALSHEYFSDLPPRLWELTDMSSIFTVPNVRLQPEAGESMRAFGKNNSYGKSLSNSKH
Sequence of Cdk14/CycY (Q8ND76 whole entry partner): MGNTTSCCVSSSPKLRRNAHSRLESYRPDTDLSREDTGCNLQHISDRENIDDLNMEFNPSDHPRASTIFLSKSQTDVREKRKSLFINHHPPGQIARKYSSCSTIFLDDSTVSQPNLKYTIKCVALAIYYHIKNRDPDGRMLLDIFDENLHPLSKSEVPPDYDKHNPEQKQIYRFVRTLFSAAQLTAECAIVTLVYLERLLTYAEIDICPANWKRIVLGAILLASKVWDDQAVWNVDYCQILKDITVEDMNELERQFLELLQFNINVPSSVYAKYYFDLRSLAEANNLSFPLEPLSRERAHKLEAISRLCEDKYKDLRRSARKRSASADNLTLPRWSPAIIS

Assay [2] has as its system HCT116 cells. The experiment in a line: Antiproliferation assay, Cell Titer Glo, 72 hours. The assay is classed as cell-based. A digest of the protocol:
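HCT116 cells seeded at 750 cells/well in McCoy's 5A with 10% FBS and exposed to four-fold compound dilution series for 72 h at 37 °C, 5% CO2. Viability by CellTiter-Glo luminescence, quadruplicate; IC50 by non-linear regression.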
(In general: Cellular ATP, detected with luciferase, serves as a proxy for viable cell number.)

Assay [3] concerns the target Cdk14 (Homo sapiens (Human), UniProt O94921). The experiment in a line: Cellular pull down with biotinylated probe, CDK14. Conditions: HEK293 cells overexpressing Cdk14-flag. The assay is classed as cell-based. As to the method:
HEK293 cells overexpressing a Cdk14-flag fusion protein were treated with candidate compounds for 4 hours. Cells were washed with PBS, harvested and lysed in Pierce IP buffer with protease and phosphatase inhibitors (Roche). […] To enhance pulldown, lysates were incubated at room temperature for an additional 2 hours. […] Beads were then washed 3 times with Pierce IP buffer, then boiled at 95° C. for 5 minutes in 2× LDS+10% β-mercaptoethanol. Proteins of interest engaged by the biotinylated compound were then assessed using western blotting.

The target in assay [4] is CDK2/CycA (Homo sapiens (Human), UniProt P24941). The experiment in a line: Z'LYTE kinase assay for CDK2/CycA at Km ATP. Format: biochemical. Conditions: read-out: IC50 CDK2 Z′LYTE kinase assay.
Assay [5] deals with CDK16/CycY (Homo sapiens (Human), UniProt Q00536). Description: Lanthascreen Eu kinase binding assay for CDK16/CycY. As to conditions: read-out: IC50 CDK16 Lanthascreen binding. The procedure: Lanthascreen Eu kinase binding assays were conducted for CDK16/CycY at Life Technologies.
Sequence of CDK16/CycY (Q00536 whole entry): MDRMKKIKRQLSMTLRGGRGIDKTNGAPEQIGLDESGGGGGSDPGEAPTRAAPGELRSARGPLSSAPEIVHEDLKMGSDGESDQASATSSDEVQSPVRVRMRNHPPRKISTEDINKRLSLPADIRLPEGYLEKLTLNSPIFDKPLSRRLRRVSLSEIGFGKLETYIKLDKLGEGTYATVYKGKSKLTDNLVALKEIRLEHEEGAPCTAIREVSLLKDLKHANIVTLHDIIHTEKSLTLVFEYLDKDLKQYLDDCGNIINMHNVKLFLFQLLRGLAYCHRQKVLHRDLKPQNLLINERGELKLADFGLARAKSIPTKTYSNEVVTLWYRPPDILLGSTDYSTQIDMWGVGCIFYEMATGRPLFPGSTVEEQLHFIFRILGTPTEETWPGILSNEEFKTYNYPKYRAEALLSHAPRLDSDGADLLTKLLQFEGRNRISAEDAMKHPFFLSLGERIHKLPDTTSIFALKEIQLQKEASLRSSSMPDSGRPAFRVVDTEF
Sequence of CDK16/CycY (Q8ND76 whole entry partner): as the sequence (Q8ND76 whole entry partner) above
In general terms: TR-FRET usually uses a lanthanide donor and a delayed reading to cut background.

Setting [6] is: 4 hours treatment, some cells print Y or N instead of a concentration.

Sequence of Cdk14 (O94921 whole entry, the tested form may be a part): as the sequence (O94921 whole entry) above

On to `CN(C)C/C=C/C(=O)Nc1ccc(CNC(=O)c2n[nH]cc2NC(=O)c2c(Cl)cccc2Cl)cc1` [FMF-05-064-2, (E)-4-(2,6-dichlorobenzamido)-N-(4-(4-(dimethylamino)but-2-enamido)benzyl)-1H-pyrazole-3-carboxamide], for which the half-inhibitory concentration (IC50) (in general, the concentration needed to halve the response being measured) was 108 nM in assay [1] and 4700 nM in assay [2] (Homo sapiens, HCT-116, 72 h). In addition, the “Cellular Potency by Pulldown” value in assay [3] (cell prints LOW (>1 μM)) was “LOW (>1 μM)”.

For `CN(C)C/C=C/C(=O)Nc1cccc(S(=O)(=O)N2CCC(NC(=O)c3n[nH]c(-c4ccccc4)c3NC(=O)c3c(Cl)cccc3Cl)CC2)c1` [FMF-04-197-1, (E)-4-(2,6-dichlorobenzamido)-N-(1-((3-(4-(dimethylamino)but-2-enamido)phenyl)sulfonyl)piperidin-4-yl)-5-phenyl-1H-pyrazole-3-carboxamide], the IC50 in assay [4] is 5900 nM; in assay [5], 5900 nM; in assay [1], 28 nM; in assay [2] (Homo sapiens, HCT-116, 72 h) it was over 10000 nM.

Take `COc1cccc(F)c1C(=O)Nc1c[nH]nc1C(=O)NC1CCN(Cc2cccc(NC(=O)/C=C/CN(C)C)c2)CC1` [IHK-01-013-2, (E)-N-(1-(3-(4-(dimethylamino)but-2-enamido)benzyl)piperidin-4-yl)-4-(2-fluoro-6-methoxybenzamido)-1H-pyrazole-3-carboxamide]: the IC50 in assay [4] was found to be 53 nM; in assay [5] it was 7.4 nM; in assay [1], 4.2 nM; in assay [2] (Homo sapiens, HCT-116, 72 h), 77 nM.

For `C=CC(=O)Nc1cccc(S(=O)(=O)N2CCC(NC(=O)c3n[nH]cc3NC(=O)c3c(OC)cc(OC)cc3OC)CC2)c1` [FMF-05-028-1, N-(1-((3-acrylamidophenyl)sulfonyl)piperidin-4-yl)-4-(2,4,6-trimethoxybenzamido)-1H-pyrazole-3-carboxamide], the concentration for half-maximal inhibition (IC50) in assay [1] is 48 nM; in assay [2] (Homo sapiens, HCT-116, 72 h) it was over 10000 nM. Also, in assay [3] (cell prints LOW (>1 uM)), the “Cellular Potency by Pulldown” value is “LOW (>1 uM)”.

Regarding `CN(C)C/C=C/C(=O)Nc1ccc(N2CCC(NC(=O)c3n[nH]cc3NC(=O)c3c(Cl)cccc3Cl)CC2)cc1` [FMF-05-073-2, (E)-4-(2,6-dichlorobenzamido)-N-(1-(4-(4-(dimethylamino)but-2-enamido)phenyl)piperidin-4-yl)-1H-pyrazole-3-carboxamide], the IC50 was 17 nM in assay [4]; 27.7 nM in assay [5]; 45 nM in assay [1]; 541 nM in assay [2] (Homo sapiens, HCT-116, 72 h).

Consider `C=CC(=O)Nc1cccc(S(=O)(=O)N2CCC(NC(=O)c3n[nH]cc3NC(=O)c3c(Cl)ccc(OC)c3Cl)CC2)c1` [FMF-04-184-1, N-(1-((3-acrylamidophenyl)sulfonyl)piperidin-4-yl)-4-(2,6-dichloro-3-methoxybenzamido)-1H-pyrazole-3-carboxamide], for which the concentration for half-maximal inhibition (IC50) in assay [1] was 0.4 nM; in assay [2] (Homo sapiens, HCT-116, 72 h), under 1 nM. In addition, the “Cellular Potency by Pulldown” value in assay [3] (setting [6]) amounted to 100 nM.

`CN(C)C/C=C/C(=O)Nc1cccc(S(=O)(=O)N2CCC(N(C)C(=O)c3n[nH]cc3NC(=O)c3c(Cl)cccc3Cl)CC2)c1` [FMF-04-086-2, (E)-4-(2,6-dichlorobenzamido)-N-(1-((3-(4-(dimethylamino)but-2-enamido)phenyl)sulfonyl)piperidin-4-yl)-N-methyl-1H-pyrazole-3-carboxamide]: the 50% inhibitory concentration (IC50) in assay [4] is 664 nM; in assay [5], 894 nM; in assay [1] it was over 1000 nM; in assay [2] (Homo sapiens, HCT-116, 72 h) it was over 10000 nM.

In the case of `C=CC(=O)Nc1ccc(CNC(=O)c2n[nH]cc2NC(=O)c2c(Cl)cccc2Cl)cc1` [FMF-05-064-1, N-(4-acrylamidobenzyl)-4-(2,6-dichlorobenzamido)-1H-pyrazole-3-carboxamide], the half-inhibitory concentration (IC50) in assay [4] came to 15 nM; in assay [5], 478 nM; in assay [1] it was 1700 nM; in assay [2] (Homo sapiens, HCT-116, 72 h), 117 nM.

Turning to `CN(C)C/C=C/C(=O)Nc1cccc(N2CCC(NC(=O)c3n[nH]cc3NC(=O)c3c(Cl)cccc3Cl)CC2)c1` [FMF-05-085-2, (E)-4-(2,6-dichlorobenzamido)-N-(1-(3-(4-(dimethylamino)but-2-enamido)phenyl)piperidin-4-yl)-1H-pyrazole-3-carboxamide], the concentration for half-maximal inhibition (IC50) in assay [4] is 20 nM; in assay [5], 74.4 nM; in assay [1], 27 nM; in assay [2] (Homo sapiens, HCT-116, 72 h), 427 nM.

With `COc1cccc(OC)c1C(=O)Nc1c[nH]nc1C(=O)NC1CCN(S(=O)(=O)c2cccc(NC(=O)/C=C/CN(C)C)c2)CC1` [FMF-05-119-1, (E)-4-(2,6-dimethoxybenzamido)-N-(1-((3-(4-(dimethylamino)but-2-enamido)phenyl)sulfonyl)piperidin-4-yl)-1H-pyrazole-3-carboxamide], the IC50 in assay [4] turned out to be 24.6 nM; in assay [5] it was 11.3 nM; in assay [1] it was 49.5 nM; in assay [2] (Homo sapiens, HCT-116, 72 h), 4110 nM.

Regarding `CN(C)C/C=C/C(=O)Nc1cccc(S(=O)(=O)N2CCC(NC(=O)c3nscc3NC(=O)c3c(Cl)cccc3Cl)CC2)c1` [FMF-04-089-2, (E)-4-(2,6-dichlorobenzamido)-N-(1-((3-(4-(dimethylamino)but-2-enamido)phenyl)sulfonyl)piperidin-4-yl)isothiazole-3-carboxamide], the 50% inhibitory concentration (IC50) in assay [4] is 439 nM; in assay [5] it was 404 nM; in assay [1] it was over 1000 nM; in assay [2] (Homo sapiens, HCT-116, 72 h), 3040 nM.

`C=CC(=O)Nc1cccc(C(=O)Nc2ccc(NC(=O)c3n[nH]cc3NC(=O)c3c(Cl)cccc3Cl)cc2)c1` [FMF-03-205-1, N-(4-(3-acrylamidobenzamido)phenyl)-4-(2,6-dichlorobenzamido)-1H-pyrazole-3-carboxamide]: the IC50 in assay [1] was 1010 nM; in assay [2] (Homo sapiens, HCT-116, 72 h), 6 nM. Further, in assay [3] (setting [6]), the “Cellular Potency by Pulldown” value amounted to 500 nM.

Turning to `CN(C)C/C=C/C(=O)Nc1cccc(S(=O)(=O)N2CCC(NC(=O)c3n[nH]cc3NC(=O)c3ccccc3)CC2)c1` [FMF-05-027-2, (E)-4-benzamido-N-(1-((3-(4-(dimethylamino)but-2-enamido)phenyl)sulfonyl)piperidin-4-yl)-1H-pyrazole-3-carboxamide], the IC50 in assay [4] stood at 2.8 nM; in assay [5], 9.8 nM; in assay [1], 3 nM; in assay [2] (Homo sapiens, HCT-116, 72 h), 440 nM.

As for `CN(C)C/C=C/C(=O)Nc1cccc(S(=O)(=O)N2CCC(NC(=O)c3c(NC(=O)c4c(Cl)cccc4Cl)cnn3C)CC2)c1` [FMF-04-121-1, (E)-4-(2,6-dichlorobenzamido)-N-(1-((3-(4-(dimethylamino)but-2-enamido)phenyl)sulfonyl)piperidin-4-yl)-1-methyl-1H-pyrazole-5-carboxamide], the IC50 in assay [4] is over 10000 nM; in assay [5] it was 6700 nM; in assay [1], 486 nM; in assay [2] (Homo sapiens, HCT-116, 72 h) it was 2860 nM.

As to `COc1ccccc1CC(=O)Nc1c[nH]nc1C(=O)NC1CCN(S(=O)(=O)c2cccc(NC(=O)/C=C/CN(C)C)c2)CC1` [FMF-05-117-1, (E)-N-(1-((3-(4-(dimethylamino)but-2-enamido)phenyl)sulfonyl)piperidin-4-yl)-4-(2-(2-methoxyphenyl)acetamido)-1H-pyrazole-3-carboxamide], the 50% inhibitory concentration (IC50) was 5.71 nM in assay [4]; 17 nM in assay [5]; 14 nM in assay [1]; 395 nM in assay [2] (Homo sapiens, HCT-116, 72 h).

For the molecule `CC(C)c1[nH]nc(C(=O)NC2CCN(S(=O)(=O)c3cccc(NC(=O)/C=C/CN(C)C)c3)CC2)c1NC(=O)c1c(Cl)cccc1Cl` [FMF-04-199-1, (E)-4-(2,6-dichlorobenzamido)-N-(1-((3-(4-(dimethylamino)but-2-enamido)phenyl)sulfonyl)piperidin-4-yl)-5-isopropyl-1H-pyrazole-3-carboxamide], the half-inhibitory concentration (IC50) in assay [4] was over 10000 nM; in assay [5] it was 8900 nM; in assay [1], 1000 nM; in assay [2] (Homo sapiens, HCT-116, 72 h), over 10000 nM.

As for `CN(C)C/C=C/C(=O)Nc1cccc(CN2CCC(NC(=O)c3n[nH]cc3NC(=O)c3c(F)cc(F)cc3F)CC2)c1` [FMF-04-200-2, (E)-N-(1-(3-(4-(dimethylamino)but-2-enamido)benzyl)piperidin-4-yl)-4-(2,4,6-trifluorobenzamido)-1H-pyrazole-3-carboxamide], the 50% inhibitory concentration (IC50) in assay [4] is 508 nM; in assay [5] it was 110 nM; in assay [1] it was 17 nM; in assay [2] (Homo sapiens, HCT-116, 72 h) it was 293 nM.

With `Cc1[nH]nc(C(=O)NC2CCN(S(=O)(=O)c3cccc(NC(=O)/C=C/CN(C)C)c3)CC2)c1NC(=O)c1c(Cl)cccc1Cl` [FMF-04-181-2, (E)-4-(2,6-dichlorobenzamido)-N-(1-((3-(4-(dimethylamino)but-2-enamido)phenyl)sulfonyl)piperidin-4-yl)-5-methyl-1H-pyrazole-3-carboxamide], the IC50 in assay [4] was 125 nM; in assay [5], 124 nM; in assay [1], over 1000 nM; in assay [2] (Homo sapiens, HCT-116, 72 h), over 10000 nM.

As to `CN(C)C/C=C/C(=O)Nc1cccc(CN2CCC(NC(=O)c3n[nH]cc3NC(=O)c3c(Cl)cccc3Cl)CC2)c1` [FMF-03-200-2], the IC50 in assay [4] was found to be 26 nM; in assay [5], 10.2 nM; in assay [2], 2.1 nM; in assay [2] (Homo sapiens, HCT-116, 72 h), 2.2 nM.
